Results on nine compounds are retold here after article PMC10587159, “Biosynthesis and engineering of the nonribosomal peptides with a C-terminal putrescine” (Nature Communications, 2023).

Read-outs that look alike come from different tables or passages of the source. Non-standard residues stand in square brackets, D forms with d. Residues, ends and D or L forms follow the SMILES beside them. *: point of attachment. dMet(O) = CS(=O)CC[C@@H](N)C(=O)O; Lauroyl = CCCCCCCCCCCC(=O)*; Octanoyl = CCCCCCCC(=O)*; NH(CH2)4NH2 = NCCCCN*

Data set [1] relates to human lung adenocarcinoma cell A549. Kind of data set: MTT cytotoxicity assay, A549. The class given is cell-based. From the text: (§1) The two human acute lymphoblastic leukemia cells K562 and Kasumi, two human breast adenocarcinoma cells MCF7 and MDA-MB-231, human hepatoma cell HepG-2, human lung adenocarcinoma cell A549, human gastric cancer cell SGC-7901, human colon cancer cell HCT-116, human ovarian cancer cell line SKOV3, or human lung epithelial normal cell 2B were obtained from Beyotime Biotechnology and utilized to test the cytotoxicity of compounds by MTT assays as previous study. The anti-inflammatory effect of the compounds was detected by the influence on the increase in the level of nitric oxide caused by lipopolysaccharide (LPS) based on the classic Griess method. RAW 264.7 cells (Shanghai Institutes for Biological Science) were seeded in 96-well plates and incubated for 24 h. Then, cells were treated with compounds 29, 29a, 31, and 31a (0-80 μM) for 30 min, followed by co-treatment with LPS ([…]) for another 24 h. The Nitric Oxide assay kit with Griess reagents (Beyotime, Lot: S0021, Shanghai, China) was used to examine cellular supernatant nitrite accumulation, which represents cellular NO levels. The OD value of 540 nm absorbance was detected with a microplate reader. Their authentication in the laboratory was performed regularly based on morphology and gene/protein expression. The tested micro-organisms including Gram-negative bacteria E. coli ATCC 35218 and Pseudomonas aeruginosa ATCC 27853, and Gram-positive bacteria Staphylococcus aureus ATCC 29213 and B. subtilis ATCC 6633, and fungi Candida albicans, Rhizoctonia solani and Aspergillus fumigatus were treated with different concentrations of compounds (1 μM, 10 μM, 100 μM) using Bauer-Kirby disk diffusion method to evaluate the antimicrobial activities.
A general note: Tetrazolium assays rely on reduction of a dye to a coloured formazan, in cell work by metabolically active cells.

Data set [2] concerns human breast adenocarcinoma cells MDA-MB-231. Kind of data set: cells. The class given is cell-based.
Source text: as §1

In data set [3] the test system is human hepatoma cell HepG-2. Put plainly: cells. The class given is cell-based.
Source text: as §1

Data set [4] concerns human lung epithelial normal cell 2B. Put plainly: cells. The class given is cell-based.
Source text: as §1

For data set [5], the system named is S. brevitalea DSM 7029 wild type. Put plainly: Biofilm formation of DSM 7029 wild type with compounds (crystal violet). The class given is cell-based, Schlegelella brevitalea DSM 7029. Particulars: relative to wild type treated with H2O = 100%; crystal violet 0.1%, OD600; mean of n = 3. Here is the method:
The growth curve was tested by Bioscreen C (Labsystems, Finland) as follow. Overnight culture was inoculated into 400 μL fresh CYMG medium in the ratio of 1:100 (the concentration of compounds was 0.1 μg/μL) and shook in normal speed. The OD600 value was gained in every hour for 42 h in total. Biofilm formation was measured at 18 h and 36 h respectively, as reported previously. In brief, the free-floating cells were removed, and the microtitre plate was washed with PBS (pH 7.4) after incubation for 18 h and 36 h. The biofilm was stained by adding 200 µL of crystal violet (0.1%) solution. Crystal violet solution was removed after 15 min and 200 µL of ethanol (95%) was added. The absorbance at OD600 was read using a microplate reader (Infinite M200, Tecan, Männedorf, Switzerland). Meanwhile, free-floating cells were used to test the secretion of pigment. The bacteria were removed and the supernatant was measured at OD600.

The subject of a further data set is PvdQ-like acylase GdnD. Put plainly: Deacylation by acylase GdnD (cell lysate, LC-MS). The class given is biochemical, Schlegelella brevitalea DSM 7029. As to conditions: 100 μL E. coli cell lysate with GdnD, 5 μL 10 mM substrate, 30 °C; 7 and 8: 4 h, 16 h, 27 h; other substrates 16 h; boiled lysate as control. Here is the method:
The hydrolysis function of PvdQ-like acylase GdnD was tested. GdnD is predicted to be a periplasmic protein by PSORTb[13]. The collected pellet from 50 mL LB dissolved with 8 mL buffer C (50 mM Tris, 300 mM NaCl, 5 mM MgCl2, pH 7.6), and lysed by cell disruption. Then, one hundred microliter of the cell lysate was incubated with 5 μL 10 mM substrates 7 and 8 for 4 h, 16 h, and 27 h at 30 °C. The negative control was boiled cell lysate. The other substrates (13, 14, 15, 16, and 17) incubated with the cell lysate dealt for 16 h at 30 °C. Then, the reaction was stopped by the addition of the 100 μL MeOH, and the final mixture was checked by LC‒MS analysis (5%‒95% ACN in 15 min) according to the above condition.

The test system of data set [6] is C13 domain of GdnB fragments and mutants. Put plainly: Condensation of T12-linked L-Ala with Put or other diamines (yield of 24a-27a, LC-MS). The class given is biochemical, Schlegelella brevitalea DSM 7029. Particulars: Average of n = 3. The protocol:
In vitro assays for the different enzymes of the C-terminal multi-domains were performed. Reaction buffer contained 80 μM protein, 3 μM Sfp from B. subtilis, 200 μM CoA, 2.5 mM L-Ala and 5 mM ATP was incubated at 30 °C for 30 min. Then, 2.5 mM diamines or polyamines (i.e. putrescine, 1,7-diaminoheptane, 1,6-diaminohexane, 1,5-diaminopentane, 1,2-diaminocyclohexane, spermine, and spermidine, respectively) was added to make final volume of 200 μL. The reaction was further incubated at 30 °C for 1 h or 4 h. Triple amount of cold methanol was added to quench the reaction, and the supernatant was dried by SpeedVac after removed the precipitate at 10,000 × g for 8 min. The reaction mixture was dissolved with 200 μL ddH2O, and then the mixture was derived with D-FDAA according to the procedure of the above Marfey’s analysis. The final reaction mixture was suspended using 100 μL 2 M HCl, which subsequently was dried by SpeedVac. Finally, the mixture dissolved with 100 μL MeOH to detect the target products (24a, 25a, 26a, and 27a) using LC‒MS analysis (5%‒95% ACN in 15 min).

Data set [7] has as its system human ovarian cancer cell line SKOV3. Kind of data set: cells. The class given is cell-based.
Source text: as §1

The test system of another data set is tumor lines. Put plainly: MTT cytotoxicity assay, statements on the whole panel. It counts as cell-based, human.
Source text: as §1

The next data set has as its system human cells Kasumi. Kind of data set: MTT cytotoxicity assay, Kasumi. The class given is cell-based. Particulars: Homo sapiens; MTT assay; Supplementary Table 11; read-out: IC50 Kasumi.
Source text: as §1

Data set [8] relates to human acute lymphoblastic leukemia cells K562. Put plainly: cells. The class given is cell-based. As to conditions: Homo sapiens, K562; MTT assay; Supplementary Table 11; read-out: IC50 K562.
Source text: as §1

Data set [9] concerns human breast adenocarcinoma cells MCF7. Put plainly: cells. It counts as cell-based. As to conditions: Homo sapiens, MCF7; MTT assay; Supplementary Table 11; read-out: IC50 MCF-7.
Source text: as §1

The test system of data set [10] is human colon cancer cell HCT-116. Put plainly: cells. It counts as cell-based. As to conditions: Homo sapiens, HCT-116; MTT assay; Supplementary Table 11; read-out: IC50 HCT116.
Source text: as §1

Data set [11] concerns human gastric cancer cell SGC-7901. Kind of data set: cells. It counts as cell-based. As to conditions: Homo sapiens, SGC-7901; MTT assay; Supplementary Table 11; read-out: IC50 SGC-7901.
Source text: as §1

Take `CCCCCCCCCCCC(=O)N[C@H](CC[S+](C)[O-])C(=O)N[C@H](CC(N)=O)C(=O)N1CCC[C@H]1C(=O)N[C@H](C(=O)N[C@H](Cc1ccccc1)C(=O)N1CCC[C@H]1C(=O)N[C@@H](Cc1c[nH]c2ccccc12)C(=O)N[C@@H](C(=O)N[C@@H](C)C(=O)N[C@H](C)C(=O)N[C@@H](CO)C(=O)N[C@@H](C)C(=O)NCCCCN)C(C)C)C(C)C` (some centres unmarked) [Compound 8, Glidonin H] (Lauroyl-[dMet(O)][dN]PV[dF]PW[dV]A[dA]SA-{NH(CH2)4NH2}): the IC50 in [1] (24 h), in data set [2] (24 h), in [3] (24 h) and in data set [4] (24 h) was over 20 µM in each case. In addition, in data set [5], the “biofilm formation 18 h, Average” value is 153.143%. Besides, the “biofilm formation 36 h, Average” value in data set [5] is 147.847%. Further, in the data set with PvdQ-like acylase GdnD, the “deacylation by GdnD, nonacylated product by LC-MS” value is “nonacylated products 1 and 2 were detected”.

With `CC(N)C(=O)NCCCCNc1cc(NC(C)C(N)=O)c([N+](=O)[O-])cc1[N+](=O)[O-]` [Compound 24a, L-Ala-Put-FDAA], the results for the “L-Ala condensing with Put, 1,5-diaminopentane, 1,6-diaminohexane, and 1,7-diaminoheptane (Relative Yield of product)” value (“L-Ala condensing … (Relative Yield of product)” below) in data set [6] (protein A12T12) and in data set [6] (protein A12T12C13A*T13) were 100 and 1640, respectively.

Take `CC(N)C(=O)NCCCCCNc1cc(NC(C)C(N)=O)c([N+](=O)[O-])cc1[N+](=O)[O-]` (centres unmarked) [Compound 25a]: the “L-Ala condensing … (Relative Yield of product)” value in [6] (protein A12T12) is given as 100; in [6] (protein A12T12C13A*T13), 794.339.

For `CC(N)C(=O)NCCCCCCCNc1cc(NC(C)C(N)=O)c([N+](=O)[O-])cc1[N+](=O)[O-]` (centres unmarked) [Compound 27a], the figures for the “L-Ala condensing … (Relative Yield of product)” value in data set [6] (protein A12T12) and in data set [6] (protein A12T12C13A*T13) were 100 and 248.895, respectively.

Consider `CCCCCCCC(=O)N[C@@H](CC(C)C)C(=O)N[C@H](C(=O)N[C@@H](Cc1ccc(O)cc1)C(=O)N[C@H](C)C(=O)N[C@@H](C)C(=O)N[C@H](C)C(=O)N[C@H](C(=O)NCCCCN)C(C)C)[C@@H](C)O` [Compound 29] (Octanoyl-LTY[dA]A[dA]V-{NH(CH2)4NH2}), for which the concentration for half-maximal inhibition (IC50) (as a rule, the point on the concentration scale where inhibition reaches its midpoint) in data set [1] (24 h) was 39.92 ± 0.15 µM; in data set [2] (24 h) it was 110 ± 2.6 µM; in data set [3] (24 h), 265.5 ± 2.43 µM; in data set [4] (24 h), 102.4 ± 0.25 µM; in [7] (24 h) it was 81.4 ± 1.02 µM; with tumor lines (24 h), over 40 µM. In the data set on tumor lines, the “cytotoxic / antitumor activity in words” value is “higher anti-inflammatory and antitumor activities than 29a and 31a”.

With `CCCCCCCC(=O)N[C@@H](CC(C)C)C(=O)N[C@H](C(=O)N[C@@H](Cc1ccc(O)cc1)C(=O)N[C@H](C)C(=O)N[C@@H](C)C(=O)N[C@H](C)C(=O)N[C@H](C(=O)O)C(C)C)[C@@H](C)O` [Compound 29a, octanoyl-L-Leu-L-Thr-L-Tyr-D-Ala-L-Ala-D-Ala-L-Val] (Octanoyl-LTY[dA]A[dA]V-OH), the 50% inhibitory concentration (IC50) turned out to be 82.2 ± 2.58 µM in data set [1] (24 h), 267.5 ± 0.01 µM in data set [3] (24 h), 269.4 ± 1.23 µM in data set [4] (24 h) and 161 ± 3.67 µM in data set [7] (24 h).

Regarding `CCCCCCCC(=O)N[C@H](C(=O)N[C@@H](Cc1ccccc1)C(=O)N[C@@H](CCC(=O)O)C(=O)N[C@H](C(=O)N[C@@H](C)C(=O)O)[C@@H](C)CC)C(C)C` [Compound 31a] (Octanoyl-VFEIA-OH; C-terminus assumed), the IC50 in data set [1] (24 h) stood at 453.4 ± 0.68 µM; in data set [2] (24 h), 200.5 ± 0.07 µM; in data set [3] (24 h) it was 94.29 ± 0.19 µM; in data set [4] (24 h) it was 92.26 ± 0.03 µM. For the same compound, the “IC50 SKOV3” value in [7] (MTT assay, Supplementary Table 12, n.s. indicates negative significance) is “n.s”.

For the compound `COc1cccc2c1C(=O)c1c(O)c3c(c(O)c1C2=O)C[C@@](O)(C(=O)CO)C[C@@H]3O[C@H]1C[C@H](N)[C@H](O)[C@H](C)O1` [doxorubicin, reference compound], the IC50 came to 0.42 ± 0.1 µM in the data set on human cells Kasumi; 0.82 ± 0.25 µM in [1] (Homo sapiens, A549, MTT assay, Supplementary Table 11, read-out: IC50 A549); 0.73 ± 0.05 µM in [1] (Homo sapiens, A549, MTT assay, Supplementary Table 12, read-out: IC50 A549); 0.79 ± 0.34 µM in data set [8]; 2.6 ± 0.34 µM in [9]; 0.63 ± 0.07 µM in [2] (Homo sapiens, MDA-MB-231, MTT assay, Supplementary Table 11, read-out: IC50 MDA-MB-231). The IC50 is 0.91 ± 0.05 µM in data set [2] (Homo sapiens, MDA-MB-231, MTT assay, Supplementary Table 12, n.s. indicates negative significance, read-out: IC50 MDA-MB-231); 0.59 ± 0.04 µM in data set [10]; 0.14 µM in data set [11]; 3.21 ± 0.67 µM in [3] (Homo sapiens, HepG2, MTT assay, Supplementary Table 11, read-out: IC50 HepG2); 0.23 ± 0.02 µM in data set [3] (Homo sapiens, HepG2, MTT assay, Supplementary Table 12, read-out: IC50 HepG-2); 1.32 ± 0.11 µM in [4] (Homo sapiens, MTT assay, normal cell, Supplementary Table 11, read-out: IC50 2B). The IC50 was found to be 1.34 ± 0.09 µM in data set [4] (Homo sapiens, MTT assay, normal cell, Supplementary Table 12, read-out: IC50 2B) and 1.29 ± 0.01 µM in [7] (Homo sapiens, SK-OV-3, MTT assay, Supplementary Table 12, n.s. indicates negative significance, read-out: IC50 SKOV3).

Consider “C14-Rhizomide A [Compound 17, reference compound]”, for which, in the data set on PvdQ-like acylase GdnD, the “deacylation by GdnD, nonacylated product by LC-MS” value is “could remove myristoyl”.
